The values below come from patent US20100291596A1, “SCREENING METHOD FOR AGENTS SUITABLE FOR THERAPY OF ALZHEIMER'S DISEASE” (FREIE UNIVERSITAT BERLIN, priority 2007, published 2010).

Entries after “also recorded” stand apart in the source; their conditions may differ.

In series [1] the target is T1, gamma-secretase (Homo sapiens, UniProt P49768).
T1 construct: HEK293 expressing SPA4CT-YFP were spread into a 96-well dish and were treated with NSAIDs or controls for 6 h; endogenous in cells; host or cells: HEK293 (ATCC CRL-1573)
Kind of series: Quantification of gamma-secretase inhibition: average YFP fluorescence of HEK293 cells expressing APP-CTF-YFP. Type of series: cell-based. To be noted: 6 h. The procedure:
(§1) To quantify the effects of NSAIDs on gamma-secretase activity, HEK293 expressing SPA4CT-YFP were spread into a 96-well dish and were treated with NSAIDs or controls for 6 h. Intensity of YFP fluorescence was quantified with adjusted filters in a 96-well fluorescence reader (company BertholdTech, Mithras). (i) Cells expressing a fusion protein comprising the substrate of gamma-secretase (APP-CTF) and a fluorescent protein (fp) are incubated with the drug candidate in a 96 well plate. Prior to addition to the cells, the drug is dissolved in EtOH or DMSO. Controls are (1) untreated culture medium, (2) culture medium containing EtOH or DMSO, and (3) culture medium with known inhibitors of gamma-secretase. After incubation for 6 h to 24 hours the fluorescence is determined. If gamma-secretase is active, the fusion protein is degraded and the fluorescent protein spreads in the cell, e.g., the cell cytoplasm. As a consequence, intensive fluorescence is not detectable. If the gamma-secretase is inhibited, the substrate of gamma-secretase accumulates at the plasma membrane resulting in an intensive (and traceable) fluorescence (see, for further experimental details and results FIGS. 1 and 1.II and the figure legend). Drug candidates which inhibit the biological activity (i.e. cleavage of the substrate) of gamma-secretase are discarded.

The target of series [2] is T1, gamma-secretase. Kind of series: Confocal laser scanning microscopy of subcellular distribution of APP-CTF-YFP in HEK293 cells expressing SPA4CT-YFP. The following applies: 6 h. Format: cell-based. As for the experimental part:
HEK293 cells were transiently transfected with SPA4CT-YFP. After 24 h, cells were treated with varying concentrations (indicated in the figures) of different NSAIDs, gamma-secretase inhibitor N-[N-(3,5-difluorophenacetyl-L-alanyl)]-S-phenylglycine t-butyl ester (DAPT) or vehicle control for 6 h. The subcellular distribution of APP-CTF-YFP within living cells was analyzed by confocal laser scanning microscopy (LSM).
as §1, with “(i)” for “To quantify the effects of NSAIDs on gamma-secretase activity, HEK293 expressing SPA4CT-YFP were spread into a 96-well dish and were treated with NSAIDs or controls for 6 h. Intensity of YFP fluorescence was quantified with adjusted filters in a 96-well fluorescence reader (company BertholdTech, Mithras). (i)”, “Drug candidates which inhibit the biological activity (i.e. cleavage of the substrate) of gamma-secretase are discarded.” left out

Series [3] has as its target T2, transmembrane sequence Abeta29-42 wt (Homo sapiens, UniProt P05067).
T2 construct: the amino acid residues 29-42 of the Abeta region ([…]); expressed in transfected cells; host or cells: E. coli FHK12
Nature of the series: ToxR system: dimerization of transmembrane sequence Abeta29-42 wt. Type of series: cell-based. The procedure: ToxR-system E. coli FHK12 cells were transformed with accordant DNA constructs encoding for ToxR-fusionproteins containing at least a part of the APP transmembrane sequence (e.g. sequence Abeta 29-42). Cells were grown in either FHK medium or minimal medium (e.g. M9 medium) supplemented with NSAIDs and corresponding vehicle controls for 6 h. Then, aliquots of the cells were lysed and beta-galactosidase activity was measured (Langosch et al., 1996).
The second screening step is carried out in order to find compounds selectively modulating only the processing of APP via binding to the transmembrane sequence (TMS) of APP. The APP-GxxxG motif is, inter alia, a perfect target structure for selecting compounds characterized by high affinity binding (Munter et al., EMBO J. 26 (2007), 1702-12). In the bacterial assay system (ToxR system) only the transmembrane sequence of APP containing the amino acid residues 29-42 of the Abeta region (GAIIGLMVGGVVIA) is expressed as part of a fusion protein. […] The rate of transcription correlates with the degree of dimerization and can be determined by measuring the conversion of a coloured substrate. […] After incubation for 2 to 24 h the degree of dimerization is determined. Binding of compounds to the amino acid sequence Abeta 29-42 results in weakening of dimerization and this is determined by measuring the decrease of enzymatic activity. […]

In a further series the test system is SH-SY5Y cells. Nature of the series: MTS assay of viable SH-SY5Y cells for determination of cytotoxicity. Format: cell-based, human. The following applies: 24 h. As for the experimental part:
SH-SY5Y cells expressing SPA4CT wt were spread at a density of 30.000 cells per 96-well. The cell culture media (OptiMEM, Invitrogen or serum containing medium, Biochrom) were supplemented with NSAIDs in varying concentrations as well as positive controls (without treatment or vehicle control) and negative controls (0.01% to 0.5% Triton X-100). Each well was incubated with 100 μl of supplemented media for 24 h. Then, 20 μl of the MTS stain solution (Promega, cell viability assay) was added and after 2-4 h incubation time the absorbance at 562 nm was measured.
(§2) (ii) Initially, the cytotoxicity of the compounds in cultures of neuronal cells is determined using a cell proliferation assay or an assay based on viable cells (FIG. 2). Then, APP-CTF, APP or APPsw (APPsw: APP with the familial AD mutation “swedish” (K670N M671L); APP-CTF: APP-C-terminal fragment; CTF: after alpha- or beta-secretase cleavage) expressing cells are incubated with the drug candidate (two different concentrations, 96 well plate format). After incubation for 6 to 24 h the amount of Abeta42 secreted from the cell culture medium is determined using ELISA (see, for further experimental details and results FIG. 3 and the figure legend). Drug candidates causing a reduction of the amount of Abeta42 are assayed in a further step comprising ELISA and MALDI-MS. First, the amounts of Abeta40 and Abeta38 (as well as additional possible Abeta species) are quantified by use of ELISA. Then, the entire spectrum of secreted Abeta species is assayed using immunoprecipitation and MALDI-MS analysis (see, for further experimental details and results FIG. 4 and the figure legend). Compounds leading to reduced amounts of Abeta42 and increased amounts of shorter Abeta species are selected and assayed in a further screening step.
In general terms: Tetrazolium assays rely on reduction of a dye to a coloured formazan, in cell work by metabolically active cells.

Series [4] concerns Abeta species from APP G33A-transfected cells. Nature of the series: ELISA quantification of Abeta species secreted from APP G33A-transfected cells. Type of series: cell-based. As for the experimental part:
(§3) Quantification of Abeta 42, Abeta 40 and Abeta38 with ELISA Stably transfected cells were plated at a density of 2.8×10^5 cells per 12-well. The day after splitting, 200 μl of fresh media supplemented with NSAIDs or control vehicles were added and incubated for 6 h. For Abeta40 and Abeta42-specific ELISAs, 50 μl of media were analyzed according to the manufacturer's instruction (The Genetics company (TGC), Basel, Switzerland). The same protocol was applied to determine Abeta38 levels, except that the antibody BAP-29 (provided by M. Brockhaus, Roche, Basel, Switzerland) was used.
The effect of the drugs on the dimerization motif GxxxG of TMS of APP is assayed. Drug candidates were added to the cell culture medium containing APP-CTF, APP or APPsw expressing neuronal cells or cells containing the APP-processing machinery as described in Example 2. In addition, cell lines were assayed expressing altered APP molecules characterized by a mutated GxxxG motif. Binding of the compounds to the APP GxxxG motif results in an altered processing only of the wild type proteins, but not the altered GxxxG motif of mutants (see, for further experimental details and results FIG. 5 and the figure legend).
Detection and characterization of the binding of the drug candidate to the GxxxG motif. Binding of the compounds to Abeta42 is verified by use of BIACORE and the KD-value is determined. Binding of the compounds to the GAIIG motif should lead to lack of binding to corresponding Abeta42-fragments or GxxxG mutant peptides. Similarly, using ELISA with synthetical peptides binding of NSAIDs can be determined via a competition assay (see, for further experimental details and results FIG. 6 and the figure legend).

Series [5] has as its system Abeta species secreted from SH-SY5Y cells which stably express wild type APP. Kind of series: ELISA quantification of Abeta species secreted from SH-SY5Y cells stably expressing wild type APP. Format: cell-based, human. To be noted: APP wt, 6 h. The procedure: as §3, §2
On the technique in general: ELISA stands for enzyme-linked immunosorbent assay.

With `C[C@H](NC(=O)Cc1cc(F)cc(F)c1)C(=O)N[C@H](C(=O)OC(C)(C)C)c1ccccc1` [DAPT, N-[N-(3,5-difluorophenacetyl-L-alanyl)]-S-phenylglycine t-butyl ester], the “Average fluorescence compared to the DMSO control” value on gamma-secretase [1] (1 μM) was “increased fluorescence”. Besides, at gamma-secretase [2] (1 μM added to cell culture medium), the “Localization of APP-CTF-YFP (confocal images)” value is “APP-CTF preferably accumulates at the plasma membrane”.
On to `CC(C)Cc1ccc(C(C)C(=O)O)cc1` (stereo not shown) [Ibuprofen], for which the “Stability of dimerization of the transmembrane sequence” value in series [3] was “weakens the strength of dimerization”. On gamma-secretase [1] (50 μM), the “Average fluorescence compared to the DMSO control” value was “slight increase of fluorescence”. Further, the “Concentration at which compound is no longer toxic (MTS assay)” value in the series with SH-SY5Y cells amounted to 250 µM.
With `CSc1ccc(/C=C2/C(C)=C(CC(=O)O)c3cc(F)ccc32)cc1` [sulindac sulfide], in series [4], the “Secreted amount of Abeta38” value was “does not substantially reduce”, the “Secreted amount of Abeta40” value is recorded as “does not substantially reduce” and the “Secreted amount of Abeta42” value is recorded as “no impact”. Also, the “Stability of dimerization of the transmembrane sequence” value in series [3] is “weakens the stability of dimerization of the transmembrane sequence of Abeta29-42 in a concentration dependent manner”. The “Average fluorescence compared to the DMSO control” value at gamma-secretase [1] (50 μM) was “slight increase of fluorescence”. In series [5], the “Secreted amount of Abeta38” value was “low and does not substantially reduce”; the “Secreted amount of Abeta40” value is “low and does not substantially reduce”; the “Secreted amount of Abeta42” value is on record as “decreases in a concentration dependent manner; also recorded: reduces”. The “Localization of APP-CTF-YFP (confocal images)” value at gamma-secretase [2] (30 μM) is listed as “APP-CTF preferably accumulates at the ER/nuclear membrane”. Also, the “Concentration at which compound is no longer toxic (MTS assay)” value in the series on SH-SY5Y cells was determined as 150 µM.
Take `CC(C)OC(=O)C(C)(C)Oc1ccc(C(=O)c2ccc(Cl)cc2)cc1` [Fenofibrate]: the “Concentration at which compound is no longer toxic (MTS assay)” value with SH-SY5Y cells was determined as 5 µM.
